In PubChem BioAssay AID1259411 (Chemical Carcinogenesis Research Information System (CCRIS), 2018) one finds carcinogen call data, which are given here for five compounds.

The subject of this data set is rodent carcinogenicity bioassays, tumor incidence. The data set can be described thus: CCRIS carcinogenicity studies. An excerpt:
The CCRIS database contains chemical records with carcinogenicity, mutagenicity, tumor promotion, and tumor inhibition test results. It was developed by the National Cancer Institute (NCI). Data are derived from studies cited in primary journals, current awareness tools, NCI reports, and other sources. Test results have been reviewed by experts in carcinogenesis and mutagenesis.
CCRIS provides historical information from the years 1985 - 2011. It is no longer updated.
This is an archive assay for CCRIS carcinogenicity studies.

Active and inactive are the calls of the source. How the calls were made is not given here.

Turning to `O=[N+]([O-])c1c2ccccc2cc2c3ccccc3c3ccccc3c12`, the carcinogen call (Species: MOUSE, Strain/Sex: B6C3F1/MALE, Route: INTRAPERITONEAL, Dose: 0, 400 NMOL IN 35 µL DMSO ON DAYS 1 (1/7 TOTAL DOSE), 8 (2/7 TOTAL DOSE), AND 15 (4/7 TOTAL DOSE) AFTER BIRTH (STUDY DUR) was “inactive; negative”.
As to `C1O[C@@H]1[C@H]1CO1`, the carcinogen call runs as follows: (Species: MOUSE, Strain/Sex: B6C3F1/FEMALE, Route: INHALATION, Dose: 0, 2.5, 5.0 PPM 6 HR/D 5 D/WK FOR 6 WK (STUDY DURATION: 84 WK), Dose: 0, 2.5, 5.0 PPM 6 HR/D 5 D/WK FOR 6 WK (STUDY DURATION: 84 WK), Tumor Site: Type of Lesion: HARDERIAN GLAND: TUMOR) “active; positive”; (Species: RAT, Strain/Sex: SPRAGUE-DAWLEY/FEMALE, Route: INHALATION, Dose: 0, 2.5, 5.0 PPM 6 HR/D 5 D/WK FOR 6 WK (STUDY DURATION: 84 WK), Dose: 0, 2.5, 5.0 PPM 6 HR/D 5 D/WK FOR 6 WK (STUDY DURATION: 84 WK), Tumor Site: Type of Lesion: NASAL MUCOSA: TUMOR) “active; positive”.
As to `C=COC(C)=O`, the carcinogen call by setting is: (Species: MOUSE, Strain/Sex: CRL:CD-1(ICR)BR/FEMALE, Route: INHALATION, Dose: 0, 50, 200, 600 PPM 6 HR/D 5 D/WK FOR 104 WK (STUDY DURATION: 104 WK), Dose: 0, 50, 200, 600 PPM 6 HR/D 5 D/WK FOR 104 WK (STUDY DURATION: 104 WK)) “inactive; negative”; (Species: MOUSE, Strain/Sex: CRL:CD-1(ICR)BR/MALE, Route: INHALATION, Dose: 0, 50, 200, 600 PPM 6 HR/D 5 D/WK FOR 104 WK (STUDY DURATION: 104 WK), Dose: 0, 50, 200, 600 PPM 6 HR/D 5 D/WK FOR 104 WK (STUDY DURATION: 104 WK)) “inactive; negative”; (Species: MOUSE, Strain/Sex: SWISS/FEMALE, Route: ORAL, Dose: 0, 1000, 5000 PPM IN DRINKING WATER ADMINISTERED FOR DURATION OF STUDY TO OFFSPRING OF MOTHERS EXPOSED TO THE SAME DOSES, Dose: 0, 1000, 5000 PPM IN DRINKING WATER ADMINISTERED FOR DURATION OF STUDY TO OFFSPRING OF MOTHERS EXPOSED TO THE SAME DOSES, Tumor Site: Type of Lesion: ZYMBAL GLAND: CARCINOMA, ORAL CAVITY: SQUAMOUS CELL CARCINOMA, TONGUE: SQUAMOUS CELL CARCINOMA, ESOPHAGUS: SQUAMOUS CELL, Tumor Site: Type of Lesion: ZYMBAL GLAND: CARCINOMA, ORAL CAVITY: SQUAMOUS CELL CARCINOMA, TONGUE: SQUAMOUS CELL CARCINOMA, ESOPHAGUS: SQUAMOUS CELL) “active; positive”; (Species: MOUSE, Strain/Sex: SWISS/FEMALE, Route: ORAL, Dose: 0, 1000, 5000 PPM IN DRINKING WATER FOR DURATION OF STUDY (STUDY DURATION:LIFE SPAN), Dose: 0, 1000, 5000 PPM IN DRINKING WATER FOR DURATION OF STUDY (STUDY DURATION:LIFE SPAN), Tumor Site: Type of Lesion: TONGUE: SQUAMOUS CELL CARCINOMA, ESOPHAGUS: SQUAMOUS CELL CARCINOMA, LUNG: ADENOMA OR ADENOCARCINOMA, UTERUS: TUMOR, Tumor Site: Type of Lesion: TONGUE: SQUAMOUS CELL CARCINOMA, ESOPHAGUS: SQUAMOUS CELL CARCINOMA, LUNG: ADENOMA OR ADENOCARCINOMA, UTERUS: TUMOR) “active; positive”; (Species: MOUSE, Strain/Sex: SWISS/MALE, Route: ORAL, Dose: 0, 1000, 5000 PPM IN DRINKING WATER FOR DURATION OF STUDY (STUDY DURATION: LIFE SPAN), Dose: 0, 1000, 5000 PPM IN DRINKING WATER FOR DURATION OF STUDY (STUDY DURATION: LIFE SPAN)) “inactive; negative”; (Species: RAT, Strain/Sex: CRL:CD(SD)BR/FEMALE, Route: INHALATION, Dose: 0, 50, 200, 600 PPM 6 HR/D 5 D/WK FOR 104 WK (STUDY DURATION: 104 WK), Dose: 0, 50, 200, 600 PPM 6 HR/D 5 D/WK FOR 104 WK (STUDY DURATION: 104 WK)) “inactive; negative”. Moreover, the carcinogen call is “inactive; negative” (Species: RAT, Strain/Sex: CRL:CD(SD)BR/FEMALE, Route: ORAL, Dose: 0, 200, 1000, 5000 PPM IN DRINKING WATER FOR 104 WK ADMINISTERED TO OFFSPRING OF RATS ADMINISTERED THE SAME DOSES BEGINN, Dose: 0, 200, 1000, 5000 PPM IN DRINKING WATER FOR 104 WK ADMINISTERED TO OFFSPRING OF RATS ADMINISTERED THE SAME DOSES BEGINN); “active; positive” (Species: RAT, Strain/Sex: CRL:CD(SD)BR/MALE, Route: INHALATION, Dose: 0, 50, 200, 600 PPM 6 HR/D 5 D/WK FOR 104 WK (STUDY DURATION: 104 WK), Dose: 0, 50, 200, 600 PPM 6 HR/D 5 D/WK FOR 104 WK (STUDY DURATION: 104 WK), Tumor Site: Type of Lesion: NASAL CAVITY: TUMOR); “inactive; negative” (Species: RAT, Strain/Sex: CRL:CD(SD)BR/MALE, Route: ORAL, Dose: 0, 200, 1000, 5000 PPM IN DRINKING WATER FOR 104 WK ADMINISTERED TO OFFSPRING OF RATS ADMINISTERED THE SAME DOSES BEGINN, Dose: 0, 200, 1000, 5000 PPM IN DRINKING WATER FOR 104 WK ADMINISTERED TO OFFSPRING OF RATS ADMINISTERED THE SAME DOSES BEGINN); “active; positive” (Species: RAT, Strain/Sex: F344/FEMALE, Route: ORAL, Dose: 0, 1000, 2500 MG/L IN DRINKING WATER 5 D/WK FOR 100 WK (STUDY DURATION: 130 WK), Dose: 0, 1000, 2500 MG/L IN DRINKING WATER 5 D/WK FOR 100 WK (STUDY DURATION: 130 WK), Tumor Site: Type of Lesion: UTERUS: CARCINOMA, THYROID: C-CELL ADENOMA, LIVER: NEOPLASTIC NODULE, Tumor Site: Type of Lesion: UTERUS: CARCINOMA, THYROID: C-CELL ADENOMA, LIVER: NEOPLASTIC NODULE); “inactive; negative” (Species: RAT, Strain/Sex: F344/MALE, Route: ORAL, Dose: 0, 1000, 2500 MG/L IN DRINKING WATER 5 D/WK FOR 100 WK (STUDY DURATION: 130 WK), Dose: 0, 1000, 2500 MG/L IN DRINKING WATER 5 D/WK FOR 100 WK (STUDY DURATION: 130 WK)); “active; positive” (Species: SWISS/MALE, Strain/Sex: ORAL, Route: ORAL, Dose: 0, 1000, 5000 PPM IN DRINKING WATER ADMINISTERED FOR DURATION OF STUDY TO OFFSPRING OF MOTHERS EXPOSED TO THE SAME DOSES, Dose: 0, 1000, 5000 PPM IN DRINKING WATER ADMINISTERED FOR DURATION OF STUDY TO OFFSPRING OF MOTHERS EXPOSED TO THE SAME DOSES, Tumor Site: Type of Lesion: ZYMBAL GLAND: CARCINOMA, ORAL CAVITY: SQUAMOUS CELL CARCINOMA, TONGUE: SQUAMOUS CELL CARCINOMA, ESOPHAGUS: SQUAMOUS CELL, Tumor Site: Type of Lesion: ZYMBAL GLAND: CARCINOMA, ORAL CAVITY: SQUAMOUS CELL CARCINOMA, TONGUE: SQUAMOUS CELL CARCINOMA, ESOPHAGUS: SQUAMOUS CELL).
In the case of `C=CCN=C=S`, the carcinogen call runs as follows: (Species: MOUSE, Strain/Sex: B6C3F1/FEMALE, Route: GAVAGE, Dose: 0, 12, 25 MG/KG IN CORN OIL FOR 103 WK (STUDY DURATION: 103 WK), Dose: 0, 12, 25 MG/KG IN CORN OIL FOR 103 WK (STUDY DURATION: 103 WK)) “inactive; negative”; (Species: MOUSE, Strain/Sex: B6C3F1/MALE, Route: GAVAGE, Dose: 0, 12, 25 MG/KG IN CORN OIL FOR 103 WK (STUDY DURATION: 103 WK), Dose: 0, 12, 25 MG/KG IN CORN OIL FOR 103 WK (STUDY DURATION: 103 WK)) “inactive; negative”; (Species: RAT, Strain/Sex: F344/FEMALE, Route: GAVAGE, Dose: 0, 12, 25 MG/KG IN CORN OIL FOR 103 WK (STUDY DURATION: 103 WK), Dose: 0, 12, 25 MG/KG IN CORN OIL FOR 103 WK (STUDY DURATION: 103 WK), Tumor Site: Type of Lesion: INTEGUMENTARY SYSTEM (SUBCUTANEOUS TISSUE): FIBROSARCOMA) “equivocal”; (Species: RAT, Strain/Sex: F344/MALE, Route: GAVAGE, Dose: 0, 12, 25 MG/KG IN CORN OIL FOR 103 WK (STUDY DURATION: 103 WK), Dose: 0, 12, 25 MG/KG IN CORN OIL FOR 103 WK (STUDY DURATION: 103 WK), Tumor Site: Type of Lesion: URINARY BLADDER: TRANSITIONAL CELL PAPILLOMA) “active; positive”.
With `CC(=O)O[C@]1(C(C)=O)CC[C@H]2[C@@H]3C=C(C)C4=CC(=O)CC[C@]4(C)[C@H]3CC[C@@]21C`, the carcinogen call (Species: DOG, Route: ORAL, Tumor Site: Type of Lesion: MAMMARY GLAND) is “active; positive”.
